Data reported in patent US20170122958A1, “Enzymes Functional Probes” (University of Dundee, priority 2013, published 2017).
“Also recorded” adds a separate entry of the source. Read-outs that look alike come from different tables or passages of the source.

What was measured:
[1] = system: Brd2 methionine to alanine mutants; test: DSF thermal shift, pooled statement; assay type: binding, human; conditions: span over both mutants
Procedure: (§1) DSF assays were performed on a LightCycler®480 from Roche or a Mx3005P Real Time PCR machine from Stratagene. Prior to DSF assays, frozen proteins were buffer exchanged using Vivaspin®6 concentrators with a 10 kDa cutoff on a Centrifuge 5430 from Eppendorf at a speed of 6000×g to remove glycerol and to buffer the proteins in 20 mM HEPES pH 7.5 at 25° C. and 100 mM NaCl. SYPRO®Orange from Invitrogen Molecular Probes® was used as a reporter dye to monitor the denaturing process of the proteins. Samples were assayed on a 96-well plate with final protein concentrations of 2 μM for the LightCycler®480 and 6 μM for Mx3005P. […] The temperature was raised with a step of 0.6° C. per minute from 37° C. to 95° C. with the LightCycler®480 collecting 39 measurements per ° C., and 1° C. per minute from 25° C. to 95° C. with Mx3005P, collecting fluorescence readings at the end of each interval. […]
(§2) Collected data was analysed by IGOR Pro 6, a scientific software tool from Wave Metrics, Inc. Analysis was done following the recommendations of Niesen et al.. Fluorescence intensity was plotted as a function of temperature, generating a sigmoidal curve described by a two-state transition from folded to unfolded protein. […]

Brd2 wild types = test: DSF thermal shift, pooled statement; assay type: binding, human; conditions: span over Brd2(1) and Brd2(2)
Procedure: as §1, §2

Brd2(1)*(Met165Ala) [2] = molecular target: T1, Brd2(1)*(Met165Ala) (Homo sapiens, UniProt P25440, M165A); test: DSF thermal shift; assay type: binding; set-up: Plasmids of the eight single BET bromodomain constructs Brd2(1), Brd2(2), Brd3(1), Brd3(2); His6 (N); made in house; host or cells: E. coli BL21(DE3); conditions: mutant
Procedure, shortened: (§3)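 Proteins buffer-exchanged into 20 mM HEPES pH 7.5, 100 mM NaCl; SYPRO Orange reporter. Protein 2 or 6 µM with compound 10 or 30 µM (histone peptide 100 or 300 µM) on two instruments, ramped from 37 or 25 °C to 95 °C, triplicates. Tm from first-derivative maximum of sigmoidal fits.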

Brd2(1)*(Met165-Leu) = molecular target: T2, Brd2(1)*(Met165-Leu) (Homo sapiens, UniProt P25440, M165L); test: DSF thermal shift; assay type: binding; conditions: mutant
T2 construct: Plasmids of the eight single BET bromodomain constructs Brd2(1), Brd2(2), Brd3(1), Brd3(2); His6 (N); made in house; host or cells: E. coli BL21(DE3)
Procedure, shortened: as §3

Brd2(2)*(Met438-Ala) [3] = molecular target: T3, Brd2(2)*(Met438-Ala) (Homo sapiens, UniProt P25440, M438A); test: DSF thermal shift; assay type: binding; conditions: mutant
T3 construct: Plasmids of the eight single BET bromodomain constructs Brd2(1), Brd2(2), Brd3(1), Brd3(2); His6 (N); made in house; host or cells: E. coli BL21(DE3)
Procedure, shortened: as §3

Brd2(2)*(Met438-Leu) = molecular target: T4, Brd2(2)*(Met438-Leu) (Homo sapiens, UniProt P25440, M438L); test: DSF thermal shift; assay type: binding; conditions: mutant
T4 construct: Plasmids of the eight single BET bromodomain constructs Brd2(1), Brd2(2), Brd3(1), Brd3(2); His6 (N); made in house; host or cells: E. coli BL21(DE3)
Procedure, shortened: as §3

Brd2(1) [4] = molecular target: T5, Brd2(1) (Homo sapiens, UniProt P25440); test: DSF thermal shift; assay type: binding; conditions: wild type
T5 construct: Plasmids of the eight single BET bromodomain constructs Brd2(1), Brd2(2), Brd3(1), Brd3(2); His6 (N); made in house; host or cells: E. coli BL21(DE3)

Brd2(2) [5] = molecular target: T6, Brd2(2) (Homo sapiens, UniProt P25440); test: DSF thermal shift; assay type: binding; conditions: wild type
T6 construct: Plasmids of the eight single BET bromodomain constructs Brd2(1), Brd2(2), Brd3(1), Brd3(2); His6 (N); made in house; host or cells: E. coli BL21(DE3)

Brd2(1)*(Met165Ala) [6] = molecular target: T1, Brd2(1)*(Met165Ala); test: ITC reverse titration of protein into compound; assay type: binding; set-up: Plasmids of the eight single BET bromodomain constructs Brd2(1), Brd2(2), Brd3(1), Brd3(2), Brd4(1), Brd4(2), Brdt(1) and Brdt(2); His6 (N); made in house; host or cells: E. coli BL21(DE3)
Procedure: (§4) ITC experiments were carried out on a ITC200 instrument from MicroCal™ Experiments were conducted at 3 different temperatures 15° C., 25° C. and 30° C., while stirring at 1000 rpm. Buffers of proteins, peptide and compounds were matched to 20 mM HEPES pH 7.5 at 25° C. and 100 mM NaCl. Frozen protein was buffer exchanged as described for the DSF experiments. Each titration comprised 1 initial injection of 0.4 μl lasting 0.8 s, followed by 19 injections of 2 μl lasting 4 s each at 2 min intervals. The initial injection was discarded during data analysis. Standard and reverse titrations were conducted depending on the binding partners.
Reverse titrations were conducted to test the binding of the known ligands and the novel chemical probes to the wild types and the mutants. Experiments were carried out either at 25° C. or 30° C. For strong binders, a concentration of 150-200 μM of the protein was injected into a solution of 15-20 μM compound. […] In cases where the compound was solubilized in dimethyl sulfoxide, DMSO concentration was adjusted to 1% both in the syringe and in the cell.
(§5) All the data was fitted to a single binding site model using the Microcal LLC ITC200 Origin software provided by the manufacturer to yield enthalpies of binding (ΔH) and binding constants (Kas). Further thermodynamic parameters were calculated from these values (changes in entropy ΔS, changes in free energy AG and dissociation constants (Kds)).

Brd2(1) [7] = molecular target: T5, Brd2(1); test: ITC reverse titration of protein into compound; assay type: binding; conditions: ITC 25° C.; read-out: Kd wild type Brd2(1)
Procedure: as §4
(§6) Reverse titrations were conducted to test the binding of the known ligands and the novel chemical probes to the wild types and the mutants. Experiments were carried out either at 25° C. or 30° C. […] In cases where the compound was solubilized in dimethyl sulfoxide, DMSO concentration was adjusted to 1% both in the syringe and in the cell.
as §5

Brd2(2) [8] = molecular target: T6, Brd2(2); test: ITC reverse titration of protein into compound; assay type: binding; conditions: ITC 25° C.
Procedure: as §4, §6, §5

Brd2(2)*(Met438-Ala) [9] = molecular target: T3, Brd2(2)*(Met438-Ala); test: ITC reverse titration of protein into compound; assay type: binding
Procedure: as §4
Reverse titrations were conducted to test the binding of the known ligands and the novel chemical probes to the wild types and the mutants. […]. In cases where the compound was solubilized in dimethyl sulfoxide, DMSO concentration was adjusted to 1% both in the syringe and in the cell.
as §5

Solubility observations = conditions: observation in words
Brd2(2)*(Trp370Phe) [10] = molecular target: T7, Brd2(2)*(Trp370Phe) (Homo sapiens, UniProt P25440, W370F); test: DSF thermal shift; assay type: binding; conditions: mutant
T7 construct: Plasmids of the eight single BET bromodomain constructs Brd2(1), Brd2(2), Brd3(1), Brd3(2); His6 (N); made in house; host or cells: E. coli BL21(DE3)

Brd2(1)*(Trp097Phe) = molecular target: T8, Brd2(1)*(Trp097Phe) (Homo sapiens, UniProt P25440, W97F); test: DSF thermal shift; assay type: binding; conditions: mutant
T8 construct: Plasmids of the eight single BET bromodomain constructs Brd2(1), Brd2(2), Brd3(1), Brd3(2); His6 (N); made in house; host or cells: E. coli BL21(DE3)

Brd2(1)*(Trp097His) = molecular target: T9, Brd2(1)*(Trp097His) (Homo sapiens, UniProt P25440, W97H); test: DSF thermal shift; assay type: binding; conditions: mutant
T9 construct: Plasmids of the eight single BET bromodomain constructs Brd2(1), Brd2(2), Brd3(1), Brd3(2); His6 (N); made in house; host or cells: E. coli BL21(DE3)

Brd2(2)*(Trp370His) = molecular target: T10, Brd2(2)*(Trp370His) (Homo sapiens, UniProt P25440, W370H); test: DSF thermal shift; assay type: binding; conditions: mutant
T10 construct: Plasmids of the eight single BET bromodomain constructs Brd2(1), Brd2(2), Brd3(1), Brd3(2); His6 (N); made in house; host or cells: E. coli BL21(DE3)

Brd2(2)*(Trp370Phe) [11] = molecular target: T7, Brd2(2)*(Trp370Phe); test: ITC reverse titration of protein into compound; assay type: binding
Procedure: For this reason, these molecules were not selected for further experimentation. […] Results can be seen in FIG. 7.
as §4
Reverse titrations were conducted to test the binding of the known ligands and the novel chemical probes to the wild types and the mutants. Experiments were carried out either at 25° C. or 30° C. […]
as §5

T1 sequence (P25440 74-180 M165A limits assumed): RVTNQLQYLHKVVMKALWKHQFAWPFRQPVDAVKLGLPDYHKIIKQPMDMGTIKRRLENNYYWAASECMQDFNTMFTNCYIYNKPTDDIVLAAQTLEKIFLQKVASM
T3 sequence (P25440 344-453 M438A limits assumed): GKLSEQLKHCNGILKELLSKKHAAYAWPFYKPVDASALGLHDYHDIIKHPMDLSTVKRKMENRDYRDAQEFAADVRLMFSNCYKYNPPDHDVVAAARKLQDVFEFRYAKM
T5 sequence (P25440 74-180 limits assumed): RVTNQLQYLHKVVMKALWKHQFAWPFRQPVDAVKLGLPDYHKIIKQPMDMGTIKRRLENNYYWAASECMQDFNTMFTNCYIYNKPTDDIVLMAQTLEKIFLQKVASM
T6 sequence (P25440 344-453 limits assumed): as the sequence (P25440 344-453 M438A limits assumed) above, with A95M counted along it
T7 sequence (P25440 344-453 W370F limits assumed): as the sequence (P25440 344-453 M438A limits assumed) above, with W27F, A95M counted along it
T2 sequence (P25440 74-180 M165L limits assumed): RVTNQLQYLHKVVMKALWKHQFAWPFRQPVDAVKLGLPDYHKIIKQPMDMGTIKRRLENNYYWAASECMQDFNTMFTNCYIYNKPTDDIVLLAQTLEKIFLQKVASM
T10 sequence (P25440 344-453 W370H limits assumed): as the sequence (P25440 344-453 M438A limits assumed) above, with W27H, A95M counted along it
T9 sequence (P25440 74-180 W97H limits assumed): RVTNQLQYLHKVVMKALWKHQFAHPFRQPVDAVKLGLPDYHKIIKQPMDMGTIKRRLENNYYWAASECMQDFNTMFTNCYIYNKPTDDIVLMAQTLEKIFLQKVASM
T4 sequence (P25440 344-453 M438L limits assumed): as the sequence (P25440 344-453 M438A limits assumed) above, with A95L counted along it
T8 sequence (P25440 74-180 W97F limits assumed): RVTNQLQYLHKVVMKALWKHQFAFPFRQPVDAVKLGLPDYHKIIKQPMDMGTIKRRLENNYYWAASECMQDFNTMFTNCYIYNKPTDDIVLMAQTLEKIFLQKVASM

Structure (SMILES): COc1ccc(OC)c(S(=O)(=O)Nc2ccc3c(c2)CN(C)C(=O)N3)c1 [Compound 51, 2,5-dimethoxy-N-(3-methyl-2-oxo-1,2,3,4-tetrahydroquinazolin-6-yl)benzenesulfonamide]
- ΔTm methionine to alanine mutants of Brd2 [1]: 4.5-6.6 °C
- ΔTm wild types of Brd2 (Brd2 wild types): 1-2 °C
- ΔTm Brd2(1)*(Met165-Ala) (Brd2(1)*(Met165Ala) [2]): 4.6 ± 0.2 K
- ΔTm Brd2(1)*(Met165-Leu) (Brd2(1)*(Met165-Leu)): 2.9 ± 0.2 K
- ΔTm Brd2(2)*(Met165-Ala) (Brd2(2)*(Met438-Ala) [3]): 6.6 ± 0.3 K
- ΔTm Brd2(2)*(Met165-Leu) (Brd2(2)*(Met438-Leu)): 5.2 ± 0.3 K
- ΔTm Brd2(1) (Brd2(1) [4]): 1.1 ± 0.2 K
- ΔTm Brd2(2) (Brd2(2) [5]): 2.1 ± 0.3 K
- Fold higher affinity for mutant than wild type (Brd2(1)*(Met165Ala) [6]; Brd2(1)* methionine to alanine mutant vs wild type Brd2(2), ITC Kd): three-fold higher affinity; also recorded: twelve fold higher affinity
- Selectivity for mutant relative to wild type (Brd2(1)*(Met165Ala) [6]; Brd2(1)*(Met165Ala) vs Brd2(1), ITC Kd): six-fold selectivity
- Kd (Brd2(1)*(Met165Ala) [6]; ITC 25° C.): ~500 nM
- Kd (Brd2(1) [7]): ~3200 nM
- Kd (Brd2(2) [8]; read-out: Kd Brd2(2)): ~1600 nM
- Selectivity for mutant relative to wild type (Brd2(2)*(Met438-Ala) [9]; Brd2(2) methionine to alanine mutant vs Brd2(2), ITC Kd): six fold selectivity
- Fold higher affinity for mutant than wild type (Brd2(2)*(Met438-Ala) [9]; Brd2(2)* methionine to alanine mutant vs wild type Brd2(1), ITC Kd): twelve fold higher affinity; also recorded: three-fold higher affinity
- Kd (Brd2(2)*(Met438-Ala) [9]; ITC 25° C., read-out: Kd methionine to alanine mutation of Brd2(2)): ~260 nM
- Solubility (Solubility observations): good solubility

Structure (SMILES): COC(=O)CC1N=C(c2cccc3[nH]ccc23)c2cc(OC)ccc2-n2c(C)nnc21 (stereo not shown) [Compound 18]
- ΔTm Brd2(2)*(Tryp370-Phe) (Brd2(2)*(Trp370Phe) [10]): 5.1 ± 0.1 K
- ΔTm Brd2(1) (Brd2(1) [4]): 6.8 ± 0.6 K
- ΔTm Brd2(1)*(Tryp097-Phe) (Brd2(1)*(Trp097Phe)): 1.9 ± 0.5 K
- ΔTm Brd2(1)*(Tryp097-His) (Brd2(1)*(Trp097His)): 0.6 ± 0.3 K
- ΔTm Brd2(2)*(Tryp370-His) (Brd2(2)*(Trp370His)): 2.7 ± 0.4 K
- ΔTm Brd2(2) (Brd2(2) [5]): 7.7 ± 0.2 K
- Kd (Brd2(2) [8]; Kd Brd2(2)): ~90 nM
- Kd (Brd2(2)*(Trp370Phe) [11]): ~300 nM
